Where a chain is given by its changes, count along the chain named.
Tests used:
[1] = system: hSGLT1 S393A/C; parameters: method as in PMID 22159082; details: oocytes, 22 °C; cited from earlier work
[2] = system: hSGLT1 Q457C; parameters: method as in PMID 22159082; details: oocytes, 22 °C; cited from earlier work
[3] = target: T1, hSGLT2 A395T (Homo sapiens, UniProt P31639, A395T); assay: cell-based; details: poor expression; n = 4 oocytes
T1 construct: expressed in transfected cells; host or cells: Xenopus laevis oocytes injected with hSGLT2 A395T cRNA and MAP17 cRNA
T1 sequence (Q13113 whole entry): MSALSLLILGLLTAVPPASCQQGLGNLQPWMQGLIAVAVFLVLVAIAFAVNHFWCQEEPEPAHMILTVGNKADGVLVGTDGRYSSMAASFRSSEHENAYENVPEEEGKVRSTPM
T1 sequence (P31639 whole entry A395T): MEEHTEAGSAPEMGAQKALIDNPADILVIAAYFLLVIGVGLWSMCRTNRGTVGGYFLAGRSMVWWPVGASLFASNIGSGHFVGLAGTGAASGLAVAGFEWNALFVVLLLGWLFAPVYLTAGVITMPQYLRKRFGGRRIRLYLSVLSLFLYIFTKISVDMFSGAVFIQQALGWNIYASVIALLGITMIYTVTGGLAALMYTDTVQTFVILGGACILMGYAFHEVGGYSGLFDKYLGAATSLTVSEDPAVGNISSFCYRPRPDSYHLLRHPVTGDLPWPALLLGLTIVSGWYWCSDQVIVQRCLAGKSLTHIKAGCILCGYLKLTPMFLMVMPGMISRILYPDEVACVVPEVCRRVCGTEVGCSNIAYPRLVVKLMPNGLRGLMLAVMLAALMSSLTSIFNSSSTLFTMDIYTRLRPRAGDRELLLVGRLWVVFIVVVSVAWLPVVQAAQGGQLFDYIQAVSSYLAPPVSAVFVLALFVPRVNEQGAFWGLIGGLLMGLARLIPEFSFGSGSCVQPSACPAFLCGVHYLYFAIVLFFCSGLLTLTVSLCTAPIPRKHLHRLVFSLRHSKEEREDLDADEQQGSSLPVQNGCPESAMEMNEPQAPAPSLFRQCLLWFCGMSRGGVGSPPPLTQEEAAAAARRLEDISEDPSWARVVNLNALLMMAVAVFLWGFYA
Description: (§1) Xenopus laevis (Nasco) oocytes (V–VI) were prepared as previously described[20] and injected with 50 nl of cRNA (1 μg/μl). […] Briefly, oocytes were incubated for 30 min in the presence of 50 μM αMDG (5 μM [^14C]αMDG) in a buffer containing (in mM) 100 NaCl, 2 KCl, 1 MgCl2, 1 CaCl2, and 10 N-(2-hydroxyethyl)piperazine-N′-(2-ethanesulfonic acid) (HEPES)/Tris (pH 7.5). After incubation, oocytes were rinsed thoroughly with ice-cold buffer containing (mM) 100 choline Cl^–, 2 KCl, 1 MgCl2, 1 CaCl2, and 10 HEPES/Tris (pH 7.5), individually lysed with 5% sodium dodecyl sulfate, and assayed for radioactivity.
Injected oocytes were incubated at 18 °C, and after 3–4 days, two electrode voltage clamp experiments were performed as previously described. Briefly, SGLT inward glucose currents were measured as a function of the external Na^+ (0–100 mM NaCl), sugar (0–100 mM αMDG), and inhibitors (0.001–100 μM). Steady-state and hSGLT1 capacitive currents were recorded using voltage steps from a holding voltage, Vh of −60 mV, to voltages in the range of −180 to +50 mV in 20 mV increments. The apparent affinity of αMDG, K0.5, was estimated from plots of the inward current as a function of the external αMDG concentration. Under our experimental conditions, K0.5 is a close approximation of the αMDG binding constant to the Na^+-bound outward conformation of SGLT. The apparent affinity for Na^+, K0.5, was estimated from plots of the αMDG inward current as a function of external Na^+ concentration. For hSGLT1 the interpretation of K0.5 is more complex owing to the presence of two Na^+ binding sites. In this case, the K0.5 is a lumped coefficient for Na^+ binding to the two sites in the outward-facing hSGLT1 conformation. […] The Na^+-to-αMDG stoichiometry was determined from the reversal potential measurements using the Gibbs free energy as previously described. The stoichiometry determinations were reinforced by estimates of αMDG and Na^+ Hill coefficients, and in some cases, by measurement of ^22Na and [^14C]αMDG uptakes under voltage clamp, [21].

[4] = target: T2, hSGLT1 T395A (Homo sapiens, UniProt P13866, T395A); assay: SGLT current measurement in oocytes, hSGLT1 T395A; type: cell-based; details: 22 °C
T2 construct: expressed in transfected cells; host or cells: Xenopus laevis oocytes injected with cRNA
T2 sequence (P13866 1-664 T395A): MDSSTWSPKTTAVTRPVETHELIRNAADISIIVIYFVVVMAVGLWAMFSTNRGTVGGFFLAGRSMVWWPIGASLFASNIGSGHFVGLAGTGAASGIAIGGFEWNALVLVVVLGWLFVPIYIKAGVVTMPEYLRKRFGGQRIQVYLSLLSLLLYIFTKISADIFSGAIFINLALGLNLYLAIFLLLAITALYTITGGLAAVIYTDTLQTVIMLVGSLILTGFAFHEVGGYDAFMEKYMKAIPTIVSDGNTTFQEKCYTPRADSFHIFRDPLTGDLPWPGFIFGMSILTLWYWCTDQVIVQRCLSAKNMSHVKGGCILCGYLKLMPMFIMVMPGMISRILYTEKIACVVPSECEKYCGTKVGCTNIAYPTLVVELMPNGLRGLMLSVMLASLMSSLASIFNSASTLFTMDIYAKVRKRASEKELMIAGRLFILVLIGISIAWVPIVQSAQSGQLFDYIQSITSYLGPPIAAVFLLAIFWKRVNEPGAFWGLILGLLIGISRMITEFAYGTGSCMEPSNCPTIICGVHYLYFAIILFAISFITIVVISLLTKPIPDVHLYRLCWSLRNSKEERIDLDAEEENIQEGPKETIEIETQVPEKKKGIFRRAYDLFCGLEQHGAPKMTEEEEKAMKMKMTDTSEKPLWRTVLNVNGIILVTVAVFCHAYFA
Description: as §1
Injected oocytes were incubated at 18 °C, and after 3–4 days, two electrode voltage clamp experiments were performed as previously described. Briefly, SGLT inward glucose currents were measured as a function of the external Na^+ (0–100 mM NaCl), sugar (0–100 mM αMDG), and inhibitors (0.001–100 μM). Steady-state and hSGLT1 capacitive currents were recorded using voltage steps from a holding voltage, Vh of −60 mV, to voltages in the range of −180 to +50 mV in 20 mV increments. The apparent affinity of αMDG, K0.5, was estimated from plots of the inward current as a function of the external αMDG concentration. […] The Na^+-to-αMDG stoichiometry was determined from the reversal potential measurements using the Gibbs free energy as previously described. […]

[5] = target: T3, hSGLT1 T287C (Homo sapiens, UniProt P13866, T287C); parameters: method as in PMID 29087341; details: oocytes, 22 °C; cited from earlier work
T3 construct: expressed in transfected cells; host or cells: Xenopus laevis oocytes injected with cRNA
T3 sequence (P13866 1-664 T287C): T2 sequence (P13866 1-664 T395A) with T287C, A395T

[Na+] [Na^+]
K0.5 Na^+ [1]: 32 ± 3[20] mM | K0.5 Na^+ [2]: 34 ± 2[20] mM | K0.5 Na^+ [3]: 30 ± 10 mM | K0.5 Na^+ [4]: 104 ± 50 mM | K0.5 Na^+ [5]: 6 ± 0.2[19] mM

— paper PMC6286348, “Inhibitor binding mode and allosteric regulation of Na^+-glucose symporters” (Nature Communications, 2018)
